Assay results published in ChEMBL document CHEMBL4840335, “Rational Design and Development of Novel CDK9 Inhibitors for the Treatment of Acute Myeloid Leukemia” (J Med Chem, 2021).
Calls of active or inactive are those of the source. The calls are words filed in the database; no cut-off is given here.

Assays:
[1] = target: Cyclin-dependent kinase 7 (Homo sapiens, UniProt P50613); assay: Inhibition of CDK7 (unknown origin)
[2] = target: Cyclin-dependent kinase 4 (Homo sapiens, UniProt P11802); assay: Inhibition of CDK4 (unknown origin)
Sequence of Cyclin-dependent kinase 4 (P11802 whole entry): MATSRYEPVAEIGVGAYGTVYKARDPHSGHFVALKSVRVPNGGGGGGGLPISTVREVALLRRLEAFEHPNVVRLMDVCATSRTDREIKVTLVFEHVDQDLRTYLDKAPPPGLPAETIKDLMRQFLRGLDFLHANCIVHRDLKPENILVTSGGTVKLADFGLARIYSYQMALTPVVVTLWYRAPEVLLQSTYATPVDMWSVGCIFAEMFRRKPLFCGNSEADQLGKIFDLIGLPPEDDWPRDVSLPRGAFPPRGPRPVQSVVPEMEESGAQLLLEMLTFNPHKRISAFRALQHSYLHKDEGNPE

[3] = target: Cyclin-dependent kinase 6 (Homo sapiens, UniProt Q00534); assay: Inhibition of CDK6 (unknown origin)
Sequence of Cyclin-dependent kinase 6 (Q00534 whole entry): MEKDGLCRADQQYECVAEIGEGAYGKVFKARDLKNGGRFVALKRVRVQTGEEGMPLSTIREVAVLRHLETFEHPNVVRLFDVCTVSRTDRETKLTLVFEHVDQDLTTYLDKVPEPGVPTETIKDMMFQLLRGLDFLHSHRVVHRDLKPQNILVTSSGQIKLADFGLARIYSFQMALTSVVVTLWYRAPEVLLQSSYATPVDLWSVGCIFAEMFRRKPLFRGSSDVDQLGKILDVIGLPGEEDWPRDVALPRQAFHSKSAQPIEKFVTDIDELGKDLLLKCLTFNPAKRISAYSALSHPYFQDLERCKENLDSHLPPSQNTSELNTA

[4] = target: Cyclin-dependent kinase 2 (Homo sapiens, UniProt P24941); assay: Inhibition of CDK2 (unknown origin)
CDK9/cyclin T1 = CDK9/cyclin T1 (Homo sapiens, UniProt P50750); assay: Inhibition of CDK9/cyclin T1 (unknown origin) incubated for 2 hrs in presence of ATP by FRET based LANCE assay; format: protein-complex assay
Sequence of CDK9/cyclin T1 (O60563 whole entry): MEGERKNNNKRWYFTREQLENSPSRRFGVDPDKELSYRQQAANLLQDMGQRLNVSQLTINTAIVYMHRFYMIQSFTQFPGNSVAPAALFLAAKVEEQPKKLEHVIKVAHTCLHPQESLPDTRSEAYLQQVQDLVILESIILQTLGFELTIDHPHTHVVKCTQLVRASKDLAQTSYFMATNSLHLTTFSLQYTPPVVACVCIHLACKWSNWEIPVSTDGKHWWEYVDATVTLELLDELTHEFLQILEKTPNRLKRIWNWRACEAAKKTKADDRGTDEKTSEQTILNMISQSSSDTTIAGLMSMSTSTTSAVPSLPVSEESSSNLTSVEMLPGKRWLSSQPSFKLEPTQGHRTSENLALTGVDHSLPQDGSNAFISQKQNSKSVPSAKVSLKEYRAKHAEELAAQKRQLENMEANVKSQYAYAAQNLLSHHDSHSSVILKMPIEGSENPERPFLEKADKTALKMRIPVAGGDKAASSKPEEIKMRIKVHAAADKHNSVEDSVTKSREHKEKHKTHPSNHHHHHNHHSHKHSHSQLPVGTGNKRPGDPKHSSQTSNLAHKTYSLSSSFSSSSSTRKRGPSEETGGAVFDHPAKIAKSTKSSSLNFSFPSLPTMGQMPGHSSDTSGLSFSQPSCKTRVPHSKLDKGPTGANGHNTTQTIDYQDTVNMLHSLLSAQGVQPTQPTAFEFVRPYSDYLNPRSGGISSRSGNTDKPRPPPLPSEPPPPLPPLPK
Sequence of CDK9/cyclin T1 (P50750 whole entry): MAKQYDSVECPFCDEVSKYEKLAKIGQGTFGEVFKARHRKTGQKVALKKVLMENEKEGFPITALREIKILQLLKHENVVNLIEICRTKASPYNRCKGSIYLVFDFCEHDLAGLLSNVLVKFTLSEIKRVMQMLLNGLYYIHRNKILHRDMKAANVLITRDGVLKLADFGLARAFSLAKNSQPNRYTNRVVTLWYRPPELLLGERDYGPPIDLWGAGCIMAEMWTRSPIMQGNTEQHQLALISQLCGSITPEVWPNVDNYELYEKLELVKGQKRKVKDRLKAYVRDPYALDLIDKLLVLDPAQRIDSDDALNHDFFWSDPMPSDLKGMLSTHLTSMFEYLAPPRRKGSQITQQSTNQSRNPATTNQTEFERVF

JeKo-1 = assay: Antiproliferative activity against human JeKo-1 cells assessed as reduction in cell proliferation measured after 3 to 7 days by MTS assay; format: functional, cell-based
CCRF-CEM = assay: Antiproliferative activity against human CCRF-CEM cells assessed as reduction in cell proliferation measured after 3 to 7 days by MTS assay; format: functional, cell-based
MM1.S = assay: Antiproliferative activity against human MM1.S cells assessed as reduction in cell proliferation measured after 3 to 7 days by MTS assay; format: functional, cell-based
MV4-11 [5] = assay: Induction of apoptosis in human MV4-11 cells assessed as necrotic cells at 10 nM measured after 24 hrs by annexinV-FITC/propidium iodide staining based flow cytometry (reference value: 1.03 %); format: functional
Kasumi 1 = assay: Antiproliferative activity against human Kasumi 1 cells assessed as reduction in cell proliferation measured after 3 to 7 days by MTS assay; format: functional, cell-based
MV4-11 [6] = assay: Induction of apoptosis in human MV4-11 cells assessed as late apoptotic cells at 10 nM measured after 24 hrs by annexinV-FITC/propidium iodide staining based flow cytometry (reference value: 3.04 %); format: functional
MV4-11 [7] = assay: Induction of apoptosis in human MV4-11 cells assessed as early apoptotic cells at 50 nM measured after 24 hrs by annexinV-FITC/propidium iodide staining based flow cytometry (reference value: 0.79 %); format: functional
Z-138 = assay: Antiproliferative activity against human Z138 cells assessed as reduction in cell proliferation measured after 3 to 7 days by MTS assay; format: functional, cell-based
HL-60 = assay: Antiproliferative activity against human HL-60 cells assessed as reduction in cell proliferation measured after 3 to 7 days by MTS assay; format: functional, cell-based
MV4-11 [8] = assay: Induction of apoptosis in human MV4-11 cells assessed as early apoptotic cells at 10 nM measured after 24 hrs by annexinV-FITC/propidium iodide staining based flow cytometry (reference value: 0.79 %); format: functional
MV4-11 [9] = assay: Induction of apoptosis in human MV4-11 cells assessed as necrotic cells at 50 nM measured after 24 hrs by annexinV-FITC/propidium iodide staining based flow cytometry (reference value: 1.03 %); format: functional
MV4-11 [10] = assay: Induction of apoptosis in human MV4-11 cells assessed as activation of cleaved PARP at 5 to 50 nM measured after 24 hrs by Western blot analysis; format: functional, cell-based; conditions: dose 5-50 nM
MV4-11 [11] = assay: Induction of apoptosis in human MV4-11 cells assessed as activation of caspase-3 at 5 to 50 nM measured after 24 hrs by Western blot analysis; format: functional, cell-based; conditions: dose 5-50 nM
Raji = assay: Antiproliferative activity against human Raji cells assessed as reduction in cell proliferation measured after 3 to 7 days by MTS assay; format: functional, cell-based
[12] = Antiproliferative activity against human MINO cells assessed as reduction in cell proliferation measured after 3 to 7 days by MTS assay; format: functional, cell-based
MV4-11 [13] = assay: Antiproliferative activity against human MV4-11 cells assessed as reduction in cell proliferation measured after 3 to 7 days by MTS assay; format: functional, cell-based
MV4-11 [14] = assay: Induction of apoptosis in human MV4-11 cells assessed as live cells at 50 nM measured after 24 hrs by annexinV-FITC/propidium iodide staining based flow cytometry (reference value: 95.14 %); format: functional
MV4-11 [15] = assay: Induction of apoptosis in human MV4-11 cells assessed as late apoptotic cells at 50 nM measured after 24 hrs by annexinV-FITC/propidium iodide staining based flow cytometry (reference value: 3.04 %); format: functional
RPMI-8226 = assay: Antiproliferative activity against human RPMI-8226 cells assessed as reduction in cell proliferation measured after 3 to 7 days by MTS assay; format: functional, cell-based
TMD8 = assay: Antiproliferative activity against human TMD8 cells assessed as reduction in cell proliferation measured after 3 to 7 days by MTS assay; format: functional, cell-based
OCI-Ly10 = assay: Antiproliferative activity against human OCILY10 cells assessed as reduction in cell proliferation measured after 3 to 7 days by MTS assay; format: functional, cell-based
MV4-11 [16] = assay: Induction of apoptosis in human MV4-11 cells assessed as live cells at 10 nM measured after 24 hrs by annexinV-FITC/propidium iodide staining based flow cytometry (reference value: 95.14 %); format: functional
[17] = target: CDK9/cyclin T1 (Homo sapiens) (UniProt O60563+P50750); assay: Inhibition of CDK9/cyclin T1 (unknown origin) at 10 uM incubated for 2 hrs in presence of ATP by FRET based LANCE assay relative to control; format: protein-complex assay

Sequence of Cyclin-dependent kinase 7 (P50613 whole entry): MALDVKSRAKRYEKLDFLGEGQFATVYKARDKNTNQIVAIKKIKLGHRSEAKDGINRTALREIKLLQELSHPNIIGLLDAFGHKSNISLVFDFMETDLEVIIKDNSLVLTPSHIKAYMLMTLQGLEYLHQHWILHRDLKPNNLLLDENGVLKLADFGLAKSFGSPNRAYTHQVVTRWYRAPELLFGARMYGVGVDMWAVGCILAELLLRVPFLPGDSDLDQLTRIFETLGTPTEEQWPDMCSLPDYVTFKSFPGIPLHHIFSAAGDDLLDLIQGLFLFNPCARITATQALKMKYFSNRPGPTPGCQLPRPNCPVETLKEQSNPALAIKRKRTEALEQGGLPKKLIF

Q: With `Cc1n[nH]c2ncc(-c3cc(N[C@@H](CO)c4ccccc4)cnc3Cl)cc12` as the compound, how does the IC50 [1] read?
A: Its IC50 is over 1000 nM.

Q: And the IC50 [2]?
A: The IC50 was over 1000 nM.

Q: And the IC50 [3]?
A: The IC50 was over 1000 nM.

Q: And the IC50 [4]?
A: Its IC50 is over 1000 nM.

Q: And the IC50 (CDK9/cyclin T1)?
A: The IC50 was 20.7 nM.

Q: For `Cc1cccc(C(CO)Nc2cncc(-c3ccc4[nH]nc(C)c4c3)n2)c1` (racemic), which IC50 (CDK9/cyclin T1) is on record?
A: Its IC50 is 153 nM.

Q: Which IC50 (CDK9/cyclin T1) does the source give for `Cc1n[nH]c2ccc(-c3cncc(NC(CO)c4cccc(OC(F)(F)F)c4)n3)cc12` (racemic) here?
A: Its IC50 is 633 nM.

Q: With `Cc1n[nH]c2ccc(-c3cncc(N[C@H](C)c4ccccc4)n3)cc12` as the compound, how does the IC50 (CDK9/cyclin T1) read?
A: Its IC50 is 883 nM.

Q: What does the source list for `Cc1n[nH]c2ccc(-c3cncc(N[C@@H](CO)c4cccc(F)c4)n3)cc12`?
A: IC50 [1]: 496 nM; IC50 [2]: > 1000 nM; IC50 [3]: > 1000 nM; IC50 [4]: 34.5 nM; IC50 (CDK9/cyclin T1): 9.15 nM

Q: What does the source list for `COC[C@H](C)N[C@H]1CC[C@H](Nc2cc(-c3cccc(NCC4(C#N)CCOCC4)n3)c(Cl)cn2)CC1`?
A: IC50 (JeKo-1): 10 nM; IC50 (CCRF-CEM): 3.3 nM; IC50 (MM1.S): 6.3 nM; Activity (MV4-11 [5]): 3.23%; IC50 (Kasumi 1): 6.8 nM; Activity (MV4-11 [6]): 15.48%; IC50 [1]: > 1000 nM; Activity (MV4-11 [7]): 1.8%; IC50 [2]: > 1000 nM; IC50 (Z-138): 3.7 nM; IC50 [3]: > 1000 nM; IC50 (HL-60): 5.7 nM; Activity (MV4-11 [8]): 3.33%; IC50 [4]: > 1000 nM; Activity (MV4-11 [9]): 16.67%; Activity (MV4-11 [10]): Active; IC50 (CDK9/cyclin T1): 4.96 nM; Activity (MV4-11 [11]): Active; IC50 (Raji): 11 nM; IC50 [12]: 5.2 nM; IC50 (MV4-11 [13]): 5.4 nM; Activity (MV4-11 [14]): 4.36%; Activity (MV4-11 [15]): 77.18%; IC50 (RPMI-8226): 14 nM; IC50 (TMD8): 15 nM; IC50 (OCI-Ly10): 2.1 nM; Activity (MV4-11 [16]): 77.97%

Q: For `Cc1n[nH]c2ccc(-c3cncc(N[C@@H](CO)c4ccccc4)n3)cc12`, which IC50 [1] is on record?
A: The IC50 was over 1000 nM.

Q: And the IC50 [2]?
A: Its IC50 is over 1000 nM.

Q: What about the IC50 [3] of the same compound?
A: Its IC50 is over 1000 nM.

Q: And the IC50 [4]?
A: The IC50 was 67.4 nM.

Q: And the IC50 (CDK9/cyclin T1)?
A: The IC50 was 6.04 nM.

Q: For `Cc1n[nH]c2ccc(-c3cncc(NC(C)CO)n3)cc12` (centres undefined), which IC50 (CDK9/cyclin T1) is on record?
A: Its IC50 is 995 nM.

Q: Which IC50 (CDK9/cyclin T1) does the source give for `Cc1n[nH]c2ccc(-c3cncc(N[C@@H](CO)c4ccc(F)c(F)c4)n3)cc12` here?
A: The IC50 was 24.7 nM.

Q: Which IC50 (CDK9/cyclin T1) does the source give for `Cc1n[nH]c2ccc(-c3cncc(NC(CO)c4ccc(F)cc4)n3)cc12` (racemic) here?
A: The IC50 was 50.3 nM.

Q: With `OCC(Nc1cncc(-c2ccc3occc3c2)n1)c1ccccc1` (centres undefined) as the compound, how does the IC50 (CDK9/cyclin T1) read?
A: The IC50 was 8920 nM.

Q: With `Cc1n[nH]c2ccc(-c3cncc(NC(CO)c4ccc(F)c(F)c4)n3)cc12` (racemic) as the compound, how does the IC50 (CDK9/cyclin T1) read?
A: Its IC50 is 27.3 nM.

Q: Which results are given for `Cc1n[nH]c2ccc(-c3cncc(NC(CO)c4ccccc4)n3)cc12` (racemic)?
A: IC50 [1]: > 1000 nM; IC50 [2]: > 1000 nM; IC50 [3]: > 1000 nM; IC50 [4]: 147 nM; IC50 (CDK9/cyclin T1): 14.2 nM

Q: With `Cc1n[nH]c2ccc(-c3cncc(NC(CO)c4ccccc4F)n3)cc12` (racemic) as the compound, how does the IC50 (CDK9/cyclin T1) read?
A: Its IC50 is 24.2 nM.

Q: For `Cc1n[nH]c2ccc(-c3cncc(NC(CO)c4cccc(C(F)(F)F)c4)n3)cc12` (racemic), which IC50 (CDK9/cyclin T1) is on record?
A: Its IC50 is 341 nM.

Q: Which results are given for `Cc1n[nH]c2ccc(-c3cncc(NC4CCCC(O)C4)n3)cc12` (centres undefined)?
A: IC50 [1]: 322 nM; IC50 [2]: > 1000 nM; IC50 [3]: > 1000 nM; IC50 [4]: 52.9 nM; IC50 (CDK9/cyclin T1): 643 nM

Q: Which IC50 (CDK9/cyclin T1) does the source give for `Cc1n[nH]c2ccc(-c3cc(N[C@@H](CO)c4ccc(F)cc4)cnc3Cl)cc12` here?
A: The IC50 was 26.5 nM.

Q: Which inhibition [17] does the source give for `COc1cc(F)ccc1-c1cncc(NC(CO)c2ccccc2)n1` (centres undefined) here?
A: The inhibition was 12.4%.

Q: What does the source list for `Cc1n[nH]c2ccc(-c3cncc(N[C@@H](CO)c4ccc(F)cc4)n3)cc12`?
A: IC50 [1]: > 1000 nM; IC50 [2]: > 1000 nM; IC50 [3]: > 1000 nM; IC50 [4]: 56.1 nM; IC50 (CDK9/cyclin T1): 20.4 nM

Q: With `OC[C@H](Nc1cncc(-c2ccc3[nH]ncc3c2)n1)c1ccccc1` as the compound, how does the IC50 (CDK9/cyclin T1) read?
A: Its IC50 is 42.3 nM.

Q: Which IC50 (CDK9/cyclin T1) does the source give for `Cc1n[nH]c2ncc(-c3cncc(N[C@@H](CO)c4ccccc4)n3)cc12` here?
A: Its IC50 is 6.57 nM.

Q: With `O=c1[nH]c2ccc(-c3cncc(NC(CO)c4ccccc4)n3)cc2[nH]1` (centres undefined) as the compound, how does the inhibition [17] read?
A: Its inhibition is 0.61%.

Q: For `Cc1nc2c(F)cc(-c3cncc(NC(CO)c4ccccc4)n3)cc2n1C(C)C` (centres undefined), which inhibition [17] is on record?
A: Its inhibition is 13.8%.

Q: With `COc1ccc([C@H](CO)Nc2cncc(-c3ccc4[nH]nc(C)c4c3)n2)cc1` as the compound, how does the IC50 (CDK9/cyclin T1) read?
A: The IC50 was 774 nM.

Q: Which IC50 (CDK9/cyclin T1) does the source give for `Cc1n[nH]c2ccc(-c3cncc(N[C@H](CO)c4ccccc4)n3)cc12` here?
A: Its IC50 is 8770 nM.

Q: Which IC50 (CDK9/cyclin T1) does the source give for `Cc1n[nH]c2ccc(-c3cncc(N[C@H](C)c4ccc(F)cc4)n3)cc12` here?
A: The IC50 was 6800 nM.

Q: With `OCC(Nc1cncc(-c2ccc3nccnc3c2)n1)c1ccccc1` (centres undefined) as the compound, how does the inhibition [17] read?
A: The inhibition was 2.63%.

Q: With `O=C1Cc2cc(-c3cncc(NC(CO)c4ccccc4)n3)ccc2N1` (centres undefined) as the compound, how does the inhibition [17] read?
A: Its inhibition is 31.4%.

Q: With `Cc1n[nH]c2ccc(-c3cncc(N[C@@H](CO)c4ccc(Cl)cc4)n3)cc12` as the compound, how does the IC50 (CDK9/cyclin T1) read?
A: Its IC50 is 75.6 nM.
